Values joined by “and” are separate entries in the source; they are usually repeats but may differ in a detail not shown here. Equal values may be shown once.
How the values were obtained:
Type in all cases: toxicity, cell-based
U2OS = experiment: Incucyte cell viability with U2OS; details: human, 10 µM, compound concentration 10 uM
Fibroblast = experiment: Incucyte cell viability with human fibroblast; details: 10 µM, compound concentration 10 uM
HEK-293T = experiment: Incucyte cell viability with HEK293T; details: human, 10 µM, compound concentration 10 uM
Note: unitless GR value; below 1 slowed growth and below 0 cell loss.

Compound | Growth Rate (U2OS; 0 h, replicate number 2) | Growth Rate (U2OS; 6 h, replicate number 1) | Growth Rate (U2OS; 12 h, replicate number 1) | Growth Rate (U2OS; 12 h, replicate number 2) | Growth Rate (U2OS; 18 h, replicate number 1) | Growth Rate (U2OS; 18 h, replicate number 2) | Growth Rate (U2OS; 24 h, replicate number 1) | Growth Rate (U2OS; 24 h, replicate number 2) | Growth Rate (Fibroblast; 0 h, replicate number 2) | Growth Rate (Fibroblast; 12 h, replicate number 2) | Growth Rate (Fibroblast; 18 h, replicate number 1) | Growth Rate (Fibroblast; 24 h, replicate number 1) | Growth Rate (Fibroblast; 24 h, replicate number 2) | Growth Rate (HEK-293T; 0 h, replicate number 1) | Growth Rate (HEK-293T; 0 h, replicate number 2) | Growth Rate (HEK-293T; 6 h, replicate number 2) | Growth Rate (HEK-293T; 12 h, replicate number 2) | Growth Rate (HEK-293T; 18 h, replicate number 1) | Growth Rate (HEK-293T; 18 h, replicate number 2) | Growth Rate (HEK-293T; 24 h, replicate number 2) | other results
CC[C@H](CC(=O)O)n1c(=O)c2ncccc2n(Cc2cn(C)c3cc(C)cc(C)c23)c1=O [BI-1942] | 0.8 | 0.25 and 0.31 | 0.47 and 0.65 | 0.71 and 0.98 | 0.61 and 0.75 | 0.84 | 0.67 and 0.73 | 0.61 | 0 | 0.64 and 0.67 | 0.75 and 0.86 | 0.7 and 1 | 0.86 and 0.92 | 0.52 | -0.53 | 0.45 | 0.58 | 0.94 | 0.52 | 0.65 | Growth Rate (U2OS; 0 h, replicate number 1): 0.47 and 0.69; Growth Rate (U2OS; 6 h, replicate number 2): 0.74; Growth Rate (Fibroblast; 6 h, replicate number 1): 0.14; Growth Rate (Fibroblast; 6 h, replicate number 2): 0.23 and 0.17; Growth Rate (Fibroblast; 12 h, replicate number 1): 0.83 and 0.8; Growth Rate (Fibroblast; 18 h, replicate number 2): 0.58
CC[C@@H]1C(=O)N(C)c2cnc(Nc3ccc(C(=O)NC4CCN(C)CC4)cc3OC)nc2N1C1CCCC1 [BI-2536] | 0.33 |  | 0.69 | 0.59 | 0.34 | 0.42 | 0.08 | 0.3 | -0.99 |  | 0.76 | 0.41 | 0.46 |  |  | 0.73 | 0.08 | -0.18 |  | -0.18 | Growth Rate (Fibroblast; 18 h, replicate number 2): 0.83; Growth Rate (HEK-293T; 6 h, replicate number 1): 0.45; Growth Rate (HEK-293T; 12 h, replicate number 1): -0.09; Growth Rate (HEK-293T; 24 h, replicate number 1): -0.17
CN(C)C(=O)c1sc2nc(N3CCC(S(C)(=O)=O)CC3)cc(C(F)(F)F)c2c1N [BI-5026] |  | 0.38 and 0.65 | 0.88 and 0.68 |  | 0.84 |  | 0.88 and 0.97 |  | -0.94 |  |  |  |  |  | 0.24 | 0.65 | 0.99 | 0.86 and 0.6 | 0.85 | 0.98 | Growth Rate (Fibroblast; 0 h, replicate number 1): -1; Growth Rate (HEK-293T; 6 h, replicate number 1): 0.88 and 0.51; Growth Rate (HEK-293T; 12 h, replicate number 1): 0.83 and 0.56; Growth Rate (HEK-293T; 24 h, replicate number 1): 0.97 and 0.77
Cc1nc2ccccc2c(-c2ccc3c4c(ccnc24)CCO3)c1[C@H](OC(C)(C)C)C(=O)O [BI-224436] | -0.37 | 0.57 | 0.77 | 0.72 |  | 0.85 |  | 0.75 |  | 0.76 |  |  |  | 0.67 | 0.86 |  |  |  |  |  | Growth Rate (U2OS; 6 h, replicate number 2): 0.42
CCC(F)(F)c1cc(N2CCC(S(C)(=O)=O)CC2)nc2sc(C(N)=O)c(N)c12 [BI-605906] |  | 0.71 |  | -0.82 | 0.91 | 0.92 | 0.96 | 0.9 | 0.48 | 0.85 and 0.57 and 0.87 | 0.99 | 0.9 and 0.91 | 0.97 and 0.94 | -0.07 |  | 0.83 and 0.48 | 0.72 | 0.74 and 0.73 | 0.97 and 0.85 | 0.91 | Growth Rate (Fibroblast; 0 h, replicate number 1): 0.11; Growth Rate (Fibroblast; 6 h, replicate number 1): 0.8; Growth Rate (Fibroblast; 6 h, replicate number 2): 0.76 and 0.88; Growth Rate (Fibroblast; 12 h, replicate number 1): 0.8; Growth Rate (HEK-293T; 6 h, replicate number 1): 0.34 and 0.47; Growth Rate (HEK-293T; 12 h, replicate number 1): 0.79 and 0.84; Growth Rate (HEK-293T; 24 h, replicate number 1): 0.98
